17 molecules from patent US8865750B2, “Small molecule inhibitors of RGS proteins” (The Regents of The University of Michigan, priority 2011, dated 2014) can be followed below.

The term IC50 denotes the concentration needed to halve the response being measured.

Like-named read-outs stand apart in the source and are kept apart here.

Experiment [1] deals with RGS4 (Homo sapiens (Human), UniProt P49798). Nature of the experiment: FCPIA: Gαo binding to RGS4. The note with it: for RGS4 Hill Slope: Table 3. An excerpt: (§1) FCPIA Dose Response and Reversibility Experiments:
In a further experiment the target is RGS8 (Homo sapiens (Human), UniProt P57771). The experiment can be described thus: FCPIA: Gαo binding to RGS8. The note with it: for RGS8 Hill Slope: Table 3; for IC50: read-out: RGS8 IC50.
Excerpt: as §1

Another experiment concerns HEK293 cells. Nature of the experiment: Calcium mobilization induced by compound alone.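 Note: percent of response to 10 µM reference CCG-50014.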 The note with it: Homo sapiens, HEK293; read-out: Calcium transient (% 50014). Format: cell-based. The method, then: (§2) Calcium Mobilization Experiments:
(§3) A stable cell line was developed based upon the HEK-293 Flp-In TREx cell line (Invitrogen, Carlsbad, Calif.) that stably express the muscarinic M3 receptor and have human RGS4 expression under doxycycline control. Cells were maintained in DMEM supplemented with 10% fetal bovine serum and Penicillin (100 units/ml)-Streptomycin (100 μg/ml) under 5% CO2 at 37° C. For experiments, cells were split into 96-well black, clear bottom, poly-D-lysine coated microtiter plates (Nunc, Cat. #152037) at a density of 20,000 cells/well in DMEM containing 10% fetal bovine serum and Penicillin (100 units/ml), Streptomycin (100 μg/ml). RGS4 expression was induced by supplementing the medium with 1 μg/mL doxycycline for 24-48 hours before experimentation. Cells were loaded with Fluo-4 No Wash dye in buffer for 30 minutes at 37° C. Compounds and/or carbachol were added to the wells and the fluorescence intensity was measured using a FlexStation (Molecular Devices, Sunnyvale, Calif.) plate reader. Data analysis was performed by calculating the area under the curve or maximal fluorescence intensity from a 120 second kinetic measurement.
For orientation: A change in cytosolic calcium serves as a functional read-out for many receptors and channels.

For experiment [2], the target named is RGS4. The experiment can be described thus: FCPIA: Gαo binding to RGS4. The settings on record: for RGS4 Hill Slope: Table 3.
Excerpt: as §1

The next experiment concerns M3 muscarinic receptor. The experiment can be described thus: Carbachol-induced Ca2+ response, M3 cells without RGS4 dependence. Format: cell-based. The note with it: 10 μM (FIG. 20) or as stated. The method, then: as §2, §3
as §3, with “Calcium signaling transients: A” for “A”, “units/ml)-Streptomycin” for “units/ml), Streptomycin”

Another experiment concerns the target papain (Carica papaya (Papaya), UniProt P00784). Nature of the experiment: biochemical. Format: biochemical. The text has this: Papain (Sigma-Aldrich, St. Louis, Mo.) activity was monitored by the increase in fluorescence caused by the liberation of fluorescein from autoquenched fluorescein-conjugated casein (AnaSpec, San Jose, Calif.).
Experiment [3] can be described thus: Heart rate and blood pressure in freely-moving rats. Format: in vivo. The note with it: 0.1 mg/kg intraperitoneal vs saline. The text has this: The muscarinic agonist carbachol can induce a transient bradycardic effect by activating M2 receptors in the SAN.
The mark [4] stands for this setting: Table 3, duplex FCPIA, average of two experiments.
The mark [5] stands for this setting: Table 2, mean of two independent FCPIA experiments.

Chain of RGS4 (Homo sapiens (Human), UniProt P49798) (P49798 whole entry, looked up): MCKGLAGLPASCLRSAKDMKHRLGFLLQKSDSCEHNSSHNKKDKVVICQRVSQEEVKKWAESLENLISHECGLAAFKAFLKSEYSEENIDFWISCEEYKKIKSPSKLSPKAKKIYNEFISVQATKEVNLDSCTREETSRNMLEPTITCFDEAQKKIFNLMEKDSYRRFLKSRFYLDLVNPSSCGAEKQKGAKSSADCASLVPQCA
Chain of RGS8 (P57771 other isoform, or with tags, fused parts or gaps): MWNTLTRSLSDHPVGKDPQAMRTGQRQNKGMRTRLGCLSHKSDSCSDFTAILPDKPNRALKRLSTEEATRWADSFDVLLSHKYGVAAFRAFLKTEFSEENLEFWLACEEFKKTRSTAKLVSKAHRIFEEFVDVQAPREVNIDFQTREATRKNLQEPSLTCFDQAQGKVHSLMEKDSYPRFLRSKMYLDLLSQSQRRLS
Chain of papain (P00784 134-345): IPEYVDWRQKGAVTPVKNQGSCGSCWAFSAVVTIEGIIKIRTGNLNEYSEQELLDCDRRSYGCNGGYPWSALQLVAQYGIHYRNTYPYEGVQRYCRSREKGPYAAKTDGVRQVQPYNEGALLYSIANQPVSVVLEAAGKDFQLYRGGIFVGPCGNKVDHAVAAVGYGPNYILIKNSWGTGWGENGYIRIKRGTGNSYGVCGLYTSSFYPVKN

Regarding `Cc1ccc(-n2sc(=O)n(Cc3ccccc3)c2=O)cc1` [CCG-203724, 2-p-tolyl-4-benzyl-1,2,4-thiadiazolidine-3,5-dione], on RGS4 [1], the “Fold Selectivity (R8/R4)” value was 536, the “Fold Selectivity (RGS8 IC50/ RGS4 IC50)” value came out at 536, the “Selectivity RGS4/ RGS8” value is 519 and the “RGS4 Hill Slope” value is −3.63. At RGS4 [1] (setting [4]), the IC50 worked out at 0.014 µM. On RGS8, the “RGS8 Hill Slope” value is on record as −0.94. In addition, the IC50 on RGS8 (Table 6, FCPIA) came to 7.5 µM. Besides, the Emax at 10 µM with HEK293 cells came out at 177%.

Consider `O=c1sn(-c2ccc(Cl)cc2)c(=O)n1Cc1ccc(F)cc1` [CCG-203727, 2-(4-chlorophenyl)-4-(4-fluorobenzyl)-1,2,4-thiadiazolidine-3,5-dione], for which, on RGS4 [1], the “Fold Selectivity (R8/R4)” value came to 543, the “Fold Selectivity (RGS8 IC50/ RGS4 IC50)” value was 543, the “Selectivity RGS4/ RGS8” value was found to be 564 and the “RGS4 Hill Slope” value is recorded as −1.66. The molecule also displayed an IC50 on RGS4 [1] (setting [4]) of 0.014 µM. For the same molecule, the “RGS8 Hill Slope” value at RGS8 was −1.06. Also, the half-inhibitory concentration (IC50) at RGS8 (setting [4]) was 7.6 µM. Besides, the Emax at 10 µM with HEK293 cells was determined as 158%.

In the case of `CCCCn1sc(=O)n(CC(C)C)c1=O` [CCG-203764, 2-butyl-4-isobutyl-1,2,4-thiadiazolidine-3,5-dione], on RGS4 [1], the “Fold Selectivity (R8/R4)” value was 2513, the “Fold Selectivity (RGS8 IC50/ RGS4 IC50)” value turned out to be 2513, the “Selectivity RGS4/ RGS8” value amounted to 2540 and the “RGS4 Hill Slope” value is listed as −0.87. Besides, the IC50 on RGS4 [1] (setting [4]) amounted to 0.039 µM. Moreover, the “RGS8 Hill Slope” value on RGS8 was −0.44. Moreover, the IC50 at RGS8 (Table 6, FCPIA) amounted to 98 µM. Besides, the Emax at 10 µM in the experiment on HEK293 cells amounted to 142%.

For `O=C1C=C(Br)C(=O)N1Cc1ccccc1` [CCG-203780], the values for the IC50 on RGS4 [1] (setting [5]) and at RGS8 (setting [5]) were 32 µM and more than 100 µM, respectively.

`Cc1cccc(-n2sc(=O)n(Cc3ccccc3)c2=O)c1` [CCG-203785, 2-(3-methylphenyl)-4-benzyl-1,2,4-thiadiazolidine-3,5-dione]: on RGS4 [1], the “Fold Selectivity (R8/R4)” value is given as 561, the “Fold Selectivity (RGS8 IC50/ RGS4 IC50)” value is 561, the “Selectivity RGS4/ RGS8” value is given as 558 and the “RGS4 Hill Slope” value was −1.13. On RGS4 [1] (setting [4]), the IC50 is 0.038 µM. For the same molecule, at RGS8, the “RGS8 Hill Slope” value is recorded as −0.73. At RGS8 (setting [4]), the IC50 turned out to be 21.3 µM. The Emax at 10 µM in the experiment with HEK293 cells was 145%.

With `CCn1sc(=O)n(CCOC)c1=O` [CCG-203920, 2-ethyl-4-(2-methoxyethyl)-1,2,4-thiadiazolidine-3,5-dione], the IC50 on RGS4 [2] (Table 6, FCPIA, read-out: RGS4 IC50) is 0.0543 µM; at RGS8 (Table 6, FCPIA) it was 36.1 µM. Besides, the “effect on carbachol-induced Ca2+ response (RGS-independent)” value in the experiment with M3 muscarinic receptor was “no effect”.

As for `CCN1C(=O)C=CC1=O` [N-ethyl maleimide, reference compound], the “effect on RGS8” value on RGS8 (FCPIA) is reported as “no effect”. Further, the “inhibition of papain by general cysteine alkylators” value at papain is “no effect”.

With `O=c1sn(-c2ccc(Cl)cc2)c(=O)n1Cc1ccc(Cl)c(Cl)c1` [S30, 2-(4-chlorophenyl)-4-(3,4-dichlorobenzyl)-1,2,4-thiadiazolidine-3,5-dione], the “RGS4 Hill Slope” value with RGS4 [2] is reported as −1.31. Also, the “RGS8 Hill Slope” value on RGS8 was −0.76. Moreover, the IC50 turned out to be 16.7 µM at RGS8 (setting [4]) and 16.7 µM on RGS8 (Table 6, FCPIA). Besides, in the experiment on HEK293 cells, the Emax at 10 µM is -0.1%.

For `COc1ccc(-n2sc(=O)n(Cc3ccc(Cl)c(Cl)c3)c2=O)cc1` [S31, 2-(4-methoxyphenyl)-4-(3,4-dichlorobenzyl)-1,2,4-thiadiazolidine-3,5-dione], in the experiment on RGS4 [2], the “RGS4 Hill Slope” value is −0.86. At RGS8, the “RGS8 Hill Slope” value is given as −0.64. In addition, the IC50 was determined as 5.9 µM at RGS8 (setting [4]) and 5.9 µM on RGS8 (Table 6, FCPIA). For the same molecule, the Emax at 10 µM in the experiment on HEK293 cells was 202%.

With `O=c1sn(-c2ccc(Cl)c(Cl)c2)c(=O)n1Cc1ccc(Cl)c(Cl)c1` [S32, 2-(3,4-dichlorophenyl)-4-(3,4-dichlorobenzyl)-1,2,4-thiadiazolidine-3,5-dione], the “RGS4 Hill Slope” value in the experiment on RGS4 [2] is −0.87. Besides, the “RGS8 Hill Slope” value at RGS8 was −0.85. The IC50 came out at 125 µM at RGS8 (setting [4]) and 125 µM at RGS8 (Table 6, FCPIA). Further, the Emax at 10 µM with HEK293 cells came out at 49.6%.

`Cc1ccc(Cn2sc(=O)n(Cc3ccc(Cl)c(Cl)c3)c2=O)cc1` [S33, 2-(4-methylbenzyl)-4-(3,4-dichlorobenzyl)-1,2,4-thiadiazolidine-3,5-dione]: the “RGS4 Hill Slope” value with RGS4 [2] is listed as −1.33. In addition, the “RGS8 Hill Slope” value at RGS8 was −0.71. For the same molecule, the IC50 amounted to 109 µM at RGS8 (setting [4]) and 109 µM at RGS8 (Table 6, FCPIA). Moreover, the Emax at 10 µM in the experiment on HEK293 cells turned out to be 51.7%.

Take `Cc1ccc(-n2sc(=O)n(Cc3ccc(C(C)(C)C)cc3)c2=O)cc1` [S34, 2-p-tolyl-4-(4-t-butylbenzyl)-1,2,4-thiadiazolidine-3,5-dione]: the “RGS4 Hill Slope” value in the experiment on RGS4 [2] is recorded as −1.36. In addition, the IC50 was more than 100 µM at RGS8 (setting [4]) and more than 100 µM at RGS8 (Table 6, FCPIA). Further, the Emax at 10 µM in the experiment with HEK293 cells was found to be 18.9%.

On to `CC(C)(C)c1ccc(Cn2c(=O)sn(-c3ccccc3)c2=O)cc1` [S35, 2-phenyl-4-(4-t-butylbenzyl)-1,2,4-thiadiazolidine-3,5-dione], for which the “RGS4 Hill Slope” value with RGS4 [2] was −1.72. In addition, the IC50 is more than 100 µM at RGS8 (setting [4]) and more than 100 µM on RGS8 (Table 6, FCPIA). Also, the Emax at 10 µM in the experiment with HEK293 cells is 14.4%.

On to `CC(C)(C)c1ccc(Cn2c(=O)sn(-c3ccc(C(C)(C)C)cc3)c2=O)cc1` [S36, 2-(4-t-butylphenyl)-4-(4-t-butylbenzyl)-1,2,4-thiadiazolidine-3,5-dione], for which the “RGS4 Hill Slope” value in the experiment on RGS4 [2] was −1.70. In addition, the IC50 at RGS8 (setting [4]) is more than 100 µM; on RGS8 (Table 6, FCPIA), more than 100 µM. Besides, in the experiment with HEK293 cells, the Emax at 10 µM was 14.8%.

Take `O=C1C=C(Br)C(=O)N1Cc1ccccc1` [S37, 1-benzyl-3-bromo-1H-pyrrole-2,5-dione]: the IC50 on RGS4 [1] (Table 6, FCPIA) turned out to be 32.9 µM; on RGS8 (Table 6, FCPIA), 144 µM.

With `C[N+](C)(C)CCOC(N)=O` [carbachol, reference compound], in experiment [3], the “heart rate after carbachol” value was “significant decrease in heart rate”.

Regarding `NC(=O)CI` [iodoacetamide, reference compound], the “effect on Gα0 binding to the RGS proteins tested” value on RGS4 [1] (FCPIA) is “no effect”. Further, the “inhibition of papain by general cysteine alkylators” value against papain is “dose-dependent”.
